Columns and labels:
Format in all cases: cell-based
Conditions in all cases: maximal inhibition; 48 h treatment; maximum concentration 100 µM
A2780 cells = experiment: SRB assay on A2780 cells
Method: For MTT assays, 4 × 10^3 A2780 cells were plated into 96-well plates, and for SRB assays, 1.5 × 10^3 A2780 cells were plated into 96-well plates. Cells were treated with the compounds in the concentrations indicated for either 4 h for an MTT assay or for 48 h for an SRB assay. Data are represented as average ± SD, from four biological replicates, with the exception of the MTT dataset of Ir-2b and the SRB datasets of 2b, Ru/Ir-2b, and Ir-3a, which were derived from three biological replicates. Individual assays were performed in duplicate. Values were normalized for vehicle-treated cells, and the absorbance for vehicle-treated cells equals 1. Data are represented as fold change compared to vehicle-treated controls. Normality was assessed using the D’Agostino–Pearson test. Statistical significance was assessed using a two-way ANOVA test followed by Tukey’s post hoc test. For better visibility, normality, transformations, statistical tests, and p values are presented in an MS Excel sheet at https://figshare.com/s/3a0aa60b66f3f746f41e. Color code: black—free ligand (2a,b or 3a), khaki—ruthenium complex (Ru-2a,b or Ru-3a), green—iridium complex (Ir-2a,b or Ir-3a).  FIGURE 7 The ruthenium, osmium, and iridium complexes of ligands 4a, 4b, and 5a are cytostatic on ovarian cancer models with a good therapeutic index. For SRB assays, 1.5 × 10^3 A2780 cells, 1.5 × 10^3 ID8 cells, or 4 × 10^3 primary fibroblasts were plated into 96-well plates. Cells were treated with the compounds in the concentrations indicated for 48 h. Data are represented as average ± SD, from four biological replicates on A2780 and human primary fibroblasts, except in the case of Os complexes, where experiments were performed in three biological replicates. ID8 cells were assessed in three biological replicates. Individual assays were performed in duplicate. Values were normalized for vehicle-treated cells, and the absorbance for vehicle-treated cells equals 1. Normality was assessed using the D’Agostino–Pearson test. Statistical significance was assessed using a two-way ANOVA test followed by Tukey’s post hoc test. For better visibility, normality, transformations, statistical tests, and p values are presented in an MS Excel sheet at https://figshare.com/s/3a0aa60b66f3f746f41e. Color code: black—free ligand (4a,b or 5a), khaki—ruthenium complex (Ru-4a,b), blue—osmium complex (Os-4a,b or Os-5a), green—iridium complex (Ir-4a,b), and red—rhodium complex (Rh-4a,b). An SRB assay measures protein content of cells in correlation with the cell number in an assay well and can therefore be used to assess cell proliferation or long-term cytostasis ([Skehan et al., 1990]). Cells were seeded into 96-well plates the day before the treatment for the assay. Cells were treated with the various compounds for 48 h. Then, the medium was removed, and cells were fixed with 10% trichloroacetic acid. Fixed cells were washed in distilled water three times, followed by staining with SRB (0.4 m/V% dissolved in 1% acetic acid) for 10 min. Stained cells were washed in 1% acetic acid five times; the acetic acid was removed, and the cells were left to dry. Protein-bound SRB was released by adding 100 µL of 10 mM Tris base. Plates were measured in a plate photometer (Thermo Scientific Multiscan GO spectrophotometer, Waltham, MA, United States) at 540 nm. Certain wells were designated to contain vehicle-treated cells on each plate. […] Statistical analysis was performed using version 8.0.1 of GraphPad Prism. Values were tested for normal distribution using the D’Agostino–Pearson or Shapiro–Wilk normality tests. When necessary, values were log-normalized or normalized using the Box–Cox or two-step normalization method ([Box and Cox, 1964]), as indicated in the MS Excel file listing the values at https://figshare.com/s/3a0aa60b66f3f746f41e. […]

[1] = test system: human primary dermal fibroblasts; experiment: SRB assay on human primary dermal fibroblasts
Method: (§1) FIGURE 7 The ruthenium, osmium, and iridium complexes of ligands 4a, 4b, and 5a are cytostatic on ovarian cancer models with a good therapeutic index. For SRB assays, 1.5 × 10^3 A2780 cells, 1.5 × 10^3 ID8 cells, or 4 × 10^3 primary fibroblasts were plated into 96-well plates. Cells were treated with the compounds in the concentrations indicated for 48 h. Data are represented as average ± SD, from four biological replicates on A2780 and human primary fibroblasts, except in the case of Os complexes, where experiments were performed in three biological replicates. ID8 cells were assessed in three biological replicates. Individual assays were performed in duplicate. Values were normalized for vehicle-treated cells, and the absorbance for vehicle-treated cells equals 1. Normality was assessed using the D’Agostino–Pearson test. Statistical significance was assessed using a two-way ANOVA test followed by Tukey’s post hoc test. For better visibility, normality, transformations, statistical tests, and p values are presented in an MS Excel sheet at https://figshare.com/s/3a0aa60b66f3f746f41e. Color code: black—free ligand (4a,b or 5a), khaki—ruthenium complex (Ru-4a,b), blue—osmium complex (Os-4a,b or Os-5a), green—iridium complex (Ir-4a,b), and red—rhodium complex (Rh-4a,b). An SRB assay measures protein content of cells in correlation with the cell number in an assay well and can therefore be used to assess cell proliferation or long-term cytostasis ([Skehan et al., 1990]). Cells were seeded into 96-well plates the day before the treatment for the assay. Cells were treated with the various compounds for 48 h. Then, the medium was removed, and cells were fixed with 10% trichloroacetic acid. Fixed cells were washed in distilled water three times, followed by staining with SRB (0.4 m/V% dissolved in 1% acetic acid) for 10 min. Stained cells were washed in 1% acetic acid five times; the acetic acid was removed, and the cells were left to dry. […] Plates were measured in a plate photometer (Thermo Scientific Multiscan GO spectrophotometer, Waltham, MA, United States) at 540 nm. […]

ID8 cells = experiment: SRB assay on ID8 cells
Method: as §1

SMILES | A2780 SRB max % (A2780 cells) [%] | Fibroblast SRB max % [1] [%] | ID8 SRB max % (ID8 cells) [%]
CCCCC(=O)OC[C@H]1O[C@H](n2cc(-c3ccccn3)nn2)[C@H](OC(=O)CCCC)[C@@H](OC(=O)CCCC)[C@@H]1OC(=O)CCCC [Complex 5a, 1-(2’,3’,4’,6’-Tetra-O-pentanoyl-α-D-glucopyranosyl)-4-(pyridin-2-yl)-1,2,3-triazole] | 33.92 | 27.97 | 0
O=C(OC[C@H]1O[C@H](n2cc(-c3ccccn3)nn2)[C@H](OC(=O)c2ccccc2)[C@@H](OC(=O)c2ccccc2)[C@@H]1OC(=O)c1ccccc1)c1ccccc1 [Complex 4a, 1-(2’,3’,4’,6’-Tetra-O-benzoyl-α-D-glucopyranosyl)-4-(pyridin-2-yl)-1,2,3-triazole] | 29.51 | 11.89 | 0
OC[C@H]1O[C@H](n2cc(-c3ccccn3)nn2)[C@H](O)[C@@H](O)[C@@H]1O [Complex 3a, 1-(α-D-Glucopyranosyl)-4-(pyridin-2-yl)-1,2,3-triazole] | 0 |  | 
O=C(OC[C@H]1O[C@H](n2cc(-c3ccc4ccccc4n3)nn2)[C@H](OC(=O)c2ccccc2)[C@@H](OC(=O)c2ccccc2)[C@@H]1OC(=O)c1ccccc1)c1ccccc1 [Complex 4b, 1-(2’,3’,4’,6’-Tetra-O-benzoyl-α-D-glucopyranosyl)-4-(quinolin-2-yl)-1,2,3-triazole] | 0 | 10.76 | 0

— paper PMC12434071, “Platinum-group metal half-sandwich complexes of 1-(α-D-glucopyranosyl)-4-hetaryl-1,2,3-triazoles: synthesis, solution equilibrium studies, and investigation of their anticancer and antimicrobial activities” (Frontiers in Chemistry, 2025)
